Measurements as given in PubChem BioAssay AID2060896 (Molecular Pharmacology Branch, DTP, NCI, 2025).

Tested on: 941728-121-R-J1-PDC complex spheroid viability
Assay: Anticancer human tumor 941728-121-R-J1-PDC patient-derived lung adenocarcinoma cell line growth inhibition [RAS]
Details: for IC50: curve of first compound; for viability, T/C: stronger effect = lower value; active = viability on the fitted dose curve at most 10% of control; inactive = the rest
Source text: RAS pathway inhibitors in Combinations in Complex Spheroids
A high-throughput screen of multi-cell type tumor spheroids was designed to identify active combinations of RAS pathway inhibitors and targeted small molecules. Complex spheroids include a stromal component modeled by human endothelial cells (HUVEC) and fibroblasts modeled by human mesenchymal stem cells (MSCs). The concentration ranges selected for each drug and investigational agent were based upon clinically achievable concentrations if the clinical Cmax of the agent was known.
Compounds. The drugs and investigational agents: abemaciclib (NSC768073), cobimetinib (NSC768068), divarasib (GDC6063, NSC841802), docetaxel (NSC628503), GDC-1971 (RLY-1971, NSC841576), gemcitabine (NSC613327), inavolisib (NSC800729), ipatasertib (NSC767898), KB-0742 (NSC834161), MRTX-1133 (NSC836407), osimertinib (NSC779217), RMC-4630 (NSC839698), RMC-6236 (NSC851965), RMC-6291 (NSC852671), Ro-3306 (NSC812927), sapanisertib (NSC764658), SN-38 (NSC673596), staurosporine (NSC755774), SY5609 (NSC837396), and tovorafenib (DAY101, NSC766906), were obtained from the National Cancer Institute (NCI) Developmental Therapeutics Program Chemical Repository. The FDA-approved anticancer drug set is available from the NCI Developmental Therapeutics Program. […] The stock solutions were prepared in dimethyl sulfoxide (DMSO, Sigma-Aldrich, St. Louis, MO, cat. D2650) at 800-fold the tested concentration and stored at -70 degrees C prior to their use. All drugs and investigational agents were tested over a range starting from a high concentration at or near the clinical Cmax and decreasing in half-log increments. If the clinical Cmax for an agent had not been determined, the highest concentration tested was 10 microM.
Cell Culture. All cells were maintained in an incubator at 37 degrees C and 5% CO2 with 95% humidity. The PDC lines were cultured according to standard operating procedures established by the NCI PDMR. All PDCs were thawed and cultured in Matrigel-coated flasks prepared with a working solution of 1X Ham's F-12 nutrient mix, without supplementation (Invitrogen, Waltham, MA, cat. 11765054), 100 U/mL penicillin-streptomycin (Invitrogen, cat. 15140122), and 2.5% Matrigel (Corning Inc., Corning, NY, cat. 354248) for the first three passages. The 362531-283-R-J2-PDC and 782815-120-R-J1-PDC lines were cultured in 6C/Colon 1B media, which includes advanced DMEM/F-12 (Thermo Fisher Scientific, cat. 12634028), 10 mM HEPES (Thermo Fisher Scientific, cat. 15630080), 1X GlutaMAX supplement (Thermo Fisher Scientific, cat. 35050061), 0.1 mg/mL primocin (InvivoGen, San Diego, CA, cat. ant-pm-2), 10% defined fetal bovine serum, heat inactivated (HyClone Laboratories Inc., Logan, UT, cat. SH30070.03HI), 50% L-WRN conditioned media (ATCC, cat. CRL-3276), 1.25 mM N-Acetyl-L-cysteine (Sigma-Aldrich, cat. A9165), 10 mM nicotinamide (Sigma-Aldrich, cat. N0636), 1X B-27 supplement (Thermo Fisher Scientific, cat. 17504044), 1X N-2 supplement (Thermo Fisher Scientific, cat. 17502048), 50 ng/mL human EGF (Thermo Fisher Scientific, cat. PHG0311), and 10 microM Y-27632 dihydrochloride (Tocris Bioscience, cat. 1254). The K12877-001-R-J1-PDC line was cultured in 6I media, which includes all 6C/Colon 1B media plus 10 ng/mL human FGF-10 (PeproTech, cat. 100-26), 1 ng/mL human FGF-2 (PeproTech, cat. 100-18B), 1 µM prostaglandin E2 (Tocris Bioscience, cat. 2296), […] hydrocortisone (Sigma-Aldrich, cat. H4001), and […] bovine insulin (Sigma-Aldrich, cat. I6634). The K86415-001-R-J1-PDC line was cultured in 6D media, which includes all 6C/Colon 1B media components minus the L-WRN conditioned media. The 485176-168-R4-J1-PDC was cultured in PANC media, which includes all 6C/Colon 1B media plus 100 ng/mL human FGF-10 (PeproTech, cat. 100-26), 500 nM SB-431542 (Selleckchem, cat. S1067), and 10 nM gastrin (Tocris Bioscience, cat. 3006). […]

[1] = second compound 0.0316 µM, first compound 0.0316 µM
[2] = second compound 0.0316 µM, first compound 0.1 µM
[3] = second compound 0.1 µM, first compound 0.0316 µM
[4] = second compound 0.1 µM, first compound 0.1 µM
[5] = second compound 0.316 µM, first compound 0.0316 µM
[6] = second compound 0.316 µM, first compound 0.1 µM
[7] = second compound 1 µM, first compound 0.0316 µM
[8] = second compound 1 µM, first compound 0.1 µM
[9] = second compound 3.16 µM, first compound 0.0316 µM
[10] = second compound 3.16 µM, first compound 0.1 µM
[11] = second compound 10 µM, first compound 0.0316 µM
[12] = second compound 10 µM, first compound 0.1 µM
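Note: spheroids exposed to compounds for 7 days before readout.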

CC(C)NCC(C(=O)N1CCN(c2ncnc3c2C(C)CC3O)CC1)c1ccc(Cl)cc1 (centres undefined) + C#Cc1c(F)ccc2cc(O)cc(-c3ncc4c(N5CC6CCC(C5)N6)nc(OCC56CCCN5CC(F)C6)nc4c3F)c12
0.422 µM: IC50 (second compound 0.316 µM)
inactive: viability, T/C [1] 102% | viability, T/C [2] 79.8% | viability, T/C (second compound 0.0316 µM, first compound 0.316 µM) 63.7% | viability, T/C (second compound 0.0316 µM, first compound 1 µM) 51.8% | viability, T/C (second compound 0.0316 µM, first compound 3.16 µM) 38.7% | viability, T/C (second compound 0.0316 µM, first compound 10 µM) 34.8% | viability, T/C [3] 79.9% | viability, T/C [4] 70.9% | viability, T/C (second compound 0.1 µM, first compound 0.316 µM) 61.6% | viability, T/C (second compound 0.1 µM, first compound 1 µM) 50% | viability, T/C (second compound 0.1 µM, first compound 3.16 µM) 39.3% | viability, T/C (second compound 0.1 µM, first compound 10 µM) 33.4% | viability, T/C [5] 56.6% | viability, T/C [6] 59.2% | viability, T/C (second compound 0.316 µM, first compound 0.316 µM) 52% | viability, T/C (second compound 0.316 µM, first compound 1 µM) 42.1% | viability, T/C (second compound 0.316 µM, first compound 3.16 µM) 35% | viability, T/C (second compound 0.316 µM, first compound 10 µM) 26.9% | viability, T/C [7] 39.3% | viability, T/C [8] 39.4% | viability, T/C (second compound 1 µM, first compound 0.316 µM) 35% | viability, T/C (second compound 1 µM, first compound 1 µM) 30.9% | viability, T/C (second compound 1 µM, first compound 3.16 µM) 22.9% | viability, T/C (second compound 1 µM, first compound 10 µM) 21.1% | viability, T/C [9] 32% | viability, T/C [10] 30.4% | viability, T/C (second compound 3.16 µM, first compound 0.316 µM) 28.7% | viability, T/C (second compound 3.16 µM, first compound 1 µM) 24.9% | viability, T/C (second compound 3.16 µM, first compound 3.16 µM) 24.6% | viability, T/C (second compound 3.16 µM, first compound 10 µM) 17.3% | viability, T/C [11] 25.4% | viability, T/C [12] 23.5% | viability, T/C (second compound 10 µM, first compound 0.316 µM) 22.3% | viability, T/C (second compound 10 µM, first compound 1 µM) 21.6% | viability, T/C (second compound 10 µM, first compound 3.16 µM) 17.1% | viability, T/C (second compound 10 µM, first compound 10 µM) 11.2%
1.04 µM: IC50 (second compound 0.0316 µM)
< 0.0316 µM: IC50 (second compound 1 µM) | IC50 (second compound 3.16 µM) | IC50 (second compound 10 µM)
0.972 µM: IC50 (second compound 0.1 µM)

CC(C)n1nc(-c2ccc3oc(N)nc3c2)c2c(N)ncnc21 + C#Cc1c(F)ccc2cc(O)cc(-c3ncc4c(N5CC6CCC(C5)N6)nc(OCC56CCCN5CC(F)C6)nc4c3F)c12
< 0.000316 µM: IC50 (second compound 1 µM) | IC50 (second compound 3.16 µM) | IC50 (second compound 10 µM)
active: viability, T/C [12] 9.78%
0.00397 µM: IC50 (second compound 0.0316 µM)
0.00126 µM: IC50 (second compound 0.316 µM)
0.00276 µM: IC50 (second compound 0.1 µM)
inactive: viability, T/C (second compound 0.0316 µM, first compound 0.000316 µM) 78.9% | viability, T/C (second compound 0.0316 µM, first compound 0.001 µM) 70.5% | viability, T/C (second compound 0.0316 µM, first compound 0.00316 µM) 51% | viability, T/C (second compound 0.0316 µM, first compound 0.01 µM) 39.2% | viability, T/C [1] 31.6% | viability, T/C [2] 26.3% | viability, T/C (second compound 0.1 µM, first compound 0.000316 µM) 68.5% | viability, T/C (second compound 0.1 µM, first compound 0.001 µM) 68.6% | viability, T/C (second compound 0.1 µM, first compound 0.00316 µM) 46.3% | viability, T/C (second compound 0.1 µM, first compound 0.01 µM) 33.9% | viability, T/C [3] 27.8% | viability, T/C [4] 26.6% | viability, T/C (second compound 0.316 µM, first compound 0.000316 µM) 60.8% | viability, T/C (second compound 0.316 µM, first compound 0.001 µM) 51.7% | viability, T/C (second compound 0.316 µM, first compound 0.00316 µM) 42% | viability, T/C (second compound 0.316 µM, first compound 0.01 µM) 34.5% | viability, T/C [5] 26.7% | viability, T/C [6] 26.3% | viability, T/C (second compound 1 µM, first compound 0.000316 µM) 33.6% | viability, T/C (second compound 1 µM, first compound 0.001 µM) 35.9% | viability, T/C (second compound 1 µM, first compound 0.00316 µM) 31.3% | viability, T/C (second compound 1 µM, first compound 0.01 µM) 23.7% | viability, T/C [7] 21.1% | viability, T/C [8] 18.8% | viability, T/C (second compound 3.16 µM, first compound 0.000316 µM) 29.4% | viability, T/C (second compound 3.16 µM, first compound 0.001 µM) 30.4% | viability, T/C (second compound 3.16 µM, first compound 0.00316 µM) 25.9% | viability, T/C (second compound 3.16 µM, first compound 0.01 µM) 20.2% | viability, T/C [9] 18.4% | viability, T/C [10] 15.9% | viability, T/C (second compound 10 µM, first compound 0.000316 µM) 24.1% | viability, T/C (second compound 10 µM, first compound 0.001 µM) 22.3% | viability, T/C (second compound 10 µM, first compound 0.00316 µM) 20% | viability, T/C (second compound 10 µM, first compound 0.01 µM) 15.9% | viability, T/C [11] 11.5%
